The source of these data is BindingDB's records for doi:10.7270/Q2N014XN (Srmlsc, 2007).

This test concerns the target T1, Diphosphomevalonate decarboxylase (Streptococcus pneumoniae serotype 2 (strain D39 / NCTC 7466), UniProt A0A0H2ZN59).
T1 sequence (A0A0H2ZN59 whole entry): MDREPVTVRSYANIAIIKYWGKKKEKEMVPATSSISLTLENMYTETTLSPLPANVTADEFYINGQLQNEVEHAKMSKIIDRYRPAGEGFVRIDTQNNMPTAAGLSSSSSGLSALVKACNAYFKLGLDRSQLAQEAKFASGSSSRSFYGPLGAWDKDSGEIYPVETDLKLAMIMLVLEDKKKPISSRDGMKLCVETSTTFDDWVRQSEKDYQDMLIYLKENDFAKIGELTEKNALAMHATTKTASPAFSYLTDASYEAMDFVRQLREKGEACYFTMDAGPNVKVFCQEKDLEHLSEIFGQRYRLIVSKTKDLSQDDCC
In words: S. pneumoniae DPM-DC inhibitor potency, dose response, biochemical, PK/LDH-coupled NADH fluorescence, hexokinase coupling counter-screen (AID 550).
Usually IC50 stands for the point on the concentration scale where inhibition reaches its midpoint. `COC(=O)c1cc(NCc2c(F)cccc2Cl)ccc1N1CCOCC1` [5-[(2-chloro-6-fluoro-benzyl)amino]-2-morpholino-benzoic acid methyl ester] yielded an IC50 of 80.4 µM.
Next, `COC(=O)c1ccc(COc2ccc3c4c(c(=O)oc3c2)CCC4)o1` [5-[(4-keto-2,3-dihydro-1H-cyclopenta[c]chromen-7-yl)oxymethyl]furan-2-carboxylic acid methyl ester]: 97.1 µM; `COc1cc(CNc2ccc(N3CCOCC3)c(C(=O)O)c2)ccc1OCC(N)=O` [5-[[4-(2-amino-2-keto-ethoxy)-3-methoxy-benzyl]amino]-2-morpholino-benzoic acid]: 65.5 µM; `COc1ccc(NC(=O)c2nnn(Cc3ccc(SC)cc3)c2N)c(OC)c1` [5-amino-N-(2,4-dimethoxyphenyl)-1-[(4-methylsulfanylphenyl)methyl]triazole-4-carboxamide]: 28.5 µM.
As to `CCOC(=O)c1cncc(NC(=O)c2ccccc2)c1` [5-benzamido-3-pyridinecarboxylic acid ethyl ester], the IC50 was over 10000 µM.
Next, `O=C(Nc1ccc2nn(-c3ccccc3)nc2c1)c1ccc(Br)o1` [5-bromanyl-N-(2-phenylbenzotriazol-5-yl)furan-2-carboxamide]: 32.6 µM; `CSc1ncc(Cl)c(C(=O)Nc2nnc(SC)s2)n1` [5-chloranyl-2-methylsulfanyl-N-(5-methylsulfanyl-1,3,4-thiadiazol-2-yl)pyrimidine-4-carboxamide]: over 10000 µM.
`COC(=O)c1[nH]c2ccc(Cl)cc2c1NC(=O)CCN1CCOCC1` [5-chloro-3-[[3-(4-morpholinyl)-1-oxopropyl]amino]-1H-indole-2-carboxylic acid methyl ester] returned an IC50 of 149 µM.
The figure for `CCc1ccc(S(=O)(=O)NCc2cn3ccsc3n2)s1` [5-ethyl-N-(6-imidazo[2,1-b]thiazolylmethyl)-2-thiophenesulfonamide] is over 10000 µM; for `CCOC(=O)c1[nH]c2ccc(OC)cc2c1NC(=O)CN1CCN(c2ccccn2)CC1` [5-methoxy-3-[[1-oxo-2-[4-(2-pyridinyl)-1-piperazinyl]ethyl]amino]-1H-indole-2-carboxylic acid ethyl ester] it is over 10000 µM.
Next, `Cc1nc(NCCN)c(C#N)c2c1COC(C)(C)C2` [6-(2-aminoethylamino)-3,3,8-trimethyl-1,4-dihydropyrano[3,4-c]pyridine-5-carbonitrile]: 73.8 µM; `N#Cc1c(C(F)(F)F)cc(-c2ccco2)nc1SCc1ccncc1` [6-(2-furanyl)-2-(pyridin-4-ylmethylthio)-4-(trifluoromethyl)-3-pyridinecarbonitrile]: over 10000 µM.
The figure for `COc1ccc(-c2nn3c(-c4ccco4)nnc3s2)cc1OC` [6-(3,4-dimethoxyphenyl)-3-(2-furanyl)-[1,2,4]triazolo[3,4-b][1,3,4]thiadiazole] is 235 µM; for `COc1ccc(-c2nn3c(-c4ccccn4)nnc3s2)cc1OC` [6-(3,4-dimethoxyphenyl)-3-(2-pyridinyl)-[1,2,4]triazolo[3,4-b][1,3,4]thiadiazole] it is 89.8 µM; for `COC(=O)C1=C(C)OC(=N)C(C#N)C1c1cc(OC)c(OCC(N)=O)cc1Cl` (configuration not stated) [6-Amino-4-(4-carbamoylmethoxy-2-chloro-5-methoxy-phenyl)-5-cyano-2-methyl-4H-pyran-3-carboxylic acid methyl ester] it is over 10000 µM.
With `CCn1c2ccccc2c2nc3cc(OC)c(OC)cc3nc21` [6-Ethyl-2,3-dimethoxy-6H-indolo[2,3-b]quinoxaline], the IC50 was determined as 30.6 µM.
Consider `CC1(C)CC(=O)c2cc(OCC(=O)N3CCN(c4ccccc4F)CC3)ccc2O1` [6-[2-[4-(2-fluorophenyl)-1-piperazinyl]-2-oxoethoxy]-2,2-dimethyl-3,4-dihydro-2H-1-benzopyran-4-one], for which the IC50 stood at 37 µM.
The compound `CCOC(=O)c1c(C)n(OCc2ccccc2)c2ccc3c(n[o+]n3[O-])c12` [6-benzoxy-7-methyl-3-oxido-pyrrolo[2,3-g][2,1,3]benzoxadiazol-3-ium-8-carboxylic acid ethyl ester] registered an IC50 of over 10000 µM.
The figure for `COCCn1nnnc1CN(Cc1cccnc1)Cc1cc2cc(OC)ccc2[nH]c1=O` [6-methoxy-3-[[[1-(2-methoxyethyl)-5-tetrazolyl]methyl-(3-pyridinylmethyl)amino]methyl]-1H-quinolin-2-one] is over 10000 µM; for `COc1ccc2nc3oc(C(=O)NCc4cccs4)cc3cc2c1` [6-methoxy-N-(2-thenyl)furo[2,3-b]quinoline-2-carboxamide] it is 13.9 µM.
Compound `Cc1cc(N2CCN(C3CCCC3)CC2)n2nc(C)c(-c3ccccc3)c2n1` [7-(4-cyclopentyl-1-piperazinyl)-2,5-dimethyl-3-phenylpyrazolo[1,5-a]pyrimidine] displayed an IC50 of over 10000 µM.
The figure for `COC(=O)c1c(C(=O)OC)c2ccncn2c1Cl` [7-Chloro-pyrrolo[1,2-c]pyrimidine-5,6-dicarboxylic acid dimethyl ester] is 26.8 µM; for `CC(C)(C)n1nnnc1C(c1cc2cc3c(cc2[nH]c1=O)OCO3)N1CCN(c2ccccc2)CC1` (configuration not stated) [7-[(1-tert-butyl-1,2,3,4-tetrazol-5-yl)-(4-phenylpiperazin-1-yl)methyl]-5H-[1,3]dioxolo[4,5-g]quinolin-6-one] it is 57 µM; for `O=c1[nH]c2cc3c(cc2cc1CN(CCCO)Cc1nnnn1Cc1ccc(F)cc1)OCO3` [7-[[[1-[(4-fluorophenyl)methyl]-1,2,3,4-tetrazol-5-yl]methyl-(3-oxidanylpropyl)amino]methyl]-5H-[1,3]dioxolo[4,5-g]quinolin-6-one] it is 54.1 µM.
With `Cc1cc(-c2ccccc2)nc2cc(C(N)=O)nn12` [7-methyl-5-phenyl-2-pyrazolo[1,5-a]pyrimidinecarboxamide], the half-maximal inhibitory concentration (IC50) was over 10000 µM.
Compound `CC1(C)Cc2nc3sc4c(=O)[nH]cnc4c3cc2CS1` [8,8-dimethyl-7,10-dihydro-8H-thiopyrano[3'',4'':5',6']pyrido[3',2':4,5]thieno[3,2-d]pyrimidin-4(3H)-one] yielded an IC50 of 108 µM.
The figure for `Cc1cccc(OCC(O)Cn2c(-n3nc(C)cc3C)nc3c2c(=O)[nH]c(=O)n3C)c1` (configuration not stated) [8-(3,5-dimethylpyrazol-1-yl)-7-[2-hydroxy-3-(3-methylphenoxy)propyl]-3-methylpurine-2,6-dione] is over 10000 µM.
The figure for `O=C1CC(c2cccnc2)c2cc3c(cc2N1)OCO3` (configuration not stated) [8-(3-pyridinyl)-7,8-dihydro-5H-[1,3]dioxolo[4,5-g]quinolin-6-one] is over 10000 µM.
The figure for `C/C=C/Cn1c(N(C)Cc2ccccc2)nc2c1c(=O)[nH]c(=O)n2C` [8-[benzyl(methyl)amino]-7-[(E)-but-2-enyl]-3-methylpurine-2,6-dione] is over 10000 µM; for `COc1cccc2cc3c(=O)n(-c4ccccc4)nc-3oc12` [8-methoxy-2-phenyl-3-[1]benzopyrano[2,3-c]pyrazolone] it is over 10000 µM; for `COc1ccc(-c2cc(C(F)(F)F)n3nc(C(=O)N4CCC5(CC4)OCCO5)cc3n2)cc1OC` [8-{[5-(3,4-dimethoxyphenyl)-7-(trifluoromethyl)pyrazolo[1,5-a]pyrimidin-2-yl]carbonyl}-1,4-dioxa-8-azaspiro[4.5]decane] it is 75.3 µM.
`CCn1c2c(c3cc(C(=O)O)ccc31)CCCC2=O` [9-ethyl-1-oxo-2,3,4,9-tetrahydro-1H-carbazole-6-carboxylic acid] registered an IC50 of 78.5 µM.
